Publication PMC10178204, “Peptaibol Analogs Show Potent Antibacterial Activity against Multidrug Resistant Opportunistic Pathogens” (International Journal of Molecular Sciences, 2023)
Values after ≈ are worked out from the molar mass of the structure shown. Like-named read-outs stand apart in the source and are kept apart here. Non-standard residues stand in square brackets, D forms with d. Residues, ends and D or L forms follow the SMILES beside them. *: point of attachment. Octanoyl = CCCCCCCC(=O)*; Aib = CC(C)(N)C(=O)O

Experiments:
[1] = system: Bacillus subtilis ATCC 6633
From the text: (§1) The antibacterial activity of the peptides was initially assessed on a panel of representative Gram-positive and Gram-negative organisms of high clinical relevance and commonly responsible for bacterial infections in both animals and humans. Bacillus subtilis ATCC 6633 (Bsu) was also included as a rod-shaped model Gram-positive organism. This first panel comprised: Enterococcus faecalis ATCC 29212 (Efa); Streptococcus pyogenes ATCC 12344 (Spy); and Staphylococcus aureus ATCC 25923 (Sau); Gram-negative: Escherichia coli CCUGT (Eco), Klebsiella pneumoniae ATCC 13833 (Kpn), Acinetobacter baumannii ATCC 17978 (Aba), and Pseudomonas aeruginosa ATCC 27853 (Pae) (Table 2). Both the minimum inhibitory concentration (MIC, Table 2) and the minimum bactericidal concentration (MBC, Table S1, Supporting Material) were determined.
(§2) The minimum inhibitory concentration (MIC) and the minimum bactericidal concentration (MBC) of the compounds were determined in triplicate using Mueller–Hinton broth (MHB). […] Therefore, we decided to dissolve all peptides in DMSO to a final concentration of 25 mg/mL, for consistency. The bacteria inoculum was 5 × 10^5 CFU/mL, as recommended by CLSI (Document M07-A10, 2015). […] Reference-type strains, including representatives of both Gram-positive bacteria (Bacillus subtilis ATCC 6633, Enterococcus faecalis ATCC 29212, Staphylococcus aureus ATCC 25923, the methicillin-resistant Staphylococcus aureus ATCC 43300 (MRSA), Streptococcus pyogenes ATCC 12344) and Gram-negative bacteria (Escherichia coli CCUGT, Klebsiella pneumoniae ATCC 13833, Pseudomonas aeruginosa ATCC 27853, and Acinetobacter baumannii ATCC 17978), were acquired from ATCC or CCUG culture collections. Other antibiotic-resistant clinical isolates were present in our collection at the University Teaching Hospital (Azienda Ospedaliero-Universitaria Senese ‘Santa Maria alle Scotte’) in Siena, Tuscany, Italy. Specifically, MDR carbapenem-hydrolyzing class D β-lactamase-producing Acinetobacter baumannii and metallo-β-lactamase-producing Pseudomonas aeruginosa were used in this study (Table 4).

[2] = system: Pseudomonas aeruginosa ATCC 27853; conditions: for MIC Pae: MHB, 5 × 10^5 CFU/mL, 18 h, 35 °C, triplicate
From the text: as §1, §2

[3] = system: Staphylococcus aureus ATCC 25923
From the text: as §1, §2

[4] = system: Klebsiella pneumoniae ATCC 13833; conditions: for MIC Kpn: MHB, 5 × 10^5 CFU/mL, 18 h, 35 °C, triplicate
From the text: as §1, §2

[5] = system: Acinetobacter baumannii ATCC 17978; conditions: for MIC Aba: MHB, 5 × 10^5 CFU/mL, 18 h, 35 °C, triplicate
From the text: as §1, §2

Escherichia coli CCUGT = conditions: 18 h; for MIC Eco: MHB, 5 × 10^5 CFU/mL, 35 °C, triplicate
From the text: as §1, §2

[6] = system: Enterococcus faecalis ATCC 29212
From the text: as §1, §2

[7] = system: Streptococcus pyogenes ATCC 12344
From the text: as §1, §2

[8] = system: blood agar plate (Columbia CNA Agar); assay: Hemolysis on blood agar plate; conditions: 35 ± 2 °C, 24 h; for Hemolysis (class): 50 μg peptide (2 μL of 25 mg/mL in DMSO) spotted on blood agar, visual, triplicate
Method: Hemolysis zones were visually determined and measured. […] For two additional peptides (6 and 15), only a small hemolysis zone (diameter 4–5 mm) was visible, as compared to that of the positive control (Triton X-100, 13 mm).
Briefly, 2 μL of each peptide solution in DMSO (25 mg/mL), corresponding to 50 μg, was spotted on the surface of a blood agar plate (Columbia CNA Agar, Becton Dickinson Italia S.p.A., Florence, Italy). The plate was then incubated at 35 ± 2 °C for 24 h and visually inspected for the presence of hemolysis zones (see Figure S13, Supplementary Material). The experiment was performed in triplicate. Table 2 reports the average value of the diameter of hemolysis zones measured in each individual experiment. Triton X-100 was used as a positive control (diameter of the hemolysis zone: 13 mm), while DMSO was used as a negative control.
Figure S13. Implementation of the hemolysis test as described in Bechlars et al.. After spotting
2 µL (50 µg) of each compound at a random location on the blood agar plate and incubation at 35 ±
2 °C for 24 h, the plates were manually inspected for the presence of hemolysis zones. Triton X-100
and DMSO were used as the positive and negative controls, respectively. Results were interpreted
(1 picture or pasted object on this page, not shown here)

[9] = MHB, 5 × 10^5 CFU/mL, 18 h, 35 °C, triplicate

Compound	MBC Bsu ([1]; ATCC 6633, 18 h) [µg/mL]	MIC Bsu [1, 9] [µg/mL]	MIC Pae [2] [µg/mL]	MIC Sau [3, 9] [µg/mL]	MIC Kpn [4] [µg/mL]	MIC Aba [5] [µg/mL]	MIC Eco (Escherichia coli CCUGT) [µg/mL]	MIC Efa [6, 9] [µg/mL]	MIC Spy [7, 9] [µg/mL]	further results
CCCCCCCC(=O)NC(C)(C)C(=O)N[C@@H](CCCCN)C(=O)N[C@@H](CCCCN)C(=O)N[C@@H](CC(C)C)C(=O)NC(C)(C)C(=O)NCC(=O)N[C@H](C(=O)N[C@@H](CC(C)C)C(N)=O)[C@@H](C)CC [Peptide 12, 1-Oct-Aib-Lys-Lys-Leu-Aib-Gly-Ile-Leu-NH2] (Octanoyl-[Aib]KKL[Aib]GIL-NH2)	16 (≈ 16.6 µM)	4 (≈ 4.14 µM)	64 (≈ 66.2 µM)	16 (≈ 16.6 µM)	64 (≈ 66.2 µM)	32 (≈ 33.1 µM)	16 (≈ 16.6 µM)	32 (≈ 33.1 µM)	16 (≈ 16.6 µM)	MBC Pae ([2]; ATCC 27853, 18 h): > 128 µg/mL; MBC Sau ([3]; ATCC 25923, 18 h): 16 µg/mL (≈ 16.6 µM); MBC Kpn ([4]; ATCC 13833, 18 h): > 128 µg/mL; MBC Aba ([5]; ATCC 17978, 18 h): 32 µg/mL (≈ 33.1 µM); MBC Eco (Escherichia coli CCUGT; CCUGT): 64 µg/mL (≈ 66.2 µM); MBC Efa ([6]; ATCC 29212, 18 h): 32 µg/mL (≈ 33.1 µM); MBC Spy ([7]; ATCC 12344, 18 h): 16 µg/mL (≈ 16.6 µM)
CCCCCCCC(=O)N[C@@H](CC(C)C)C(=O)NC(C)(C)C(=O)N[C@@H](CCCCN)C(=O)N[C@H](C(N)=O)[C@@H](C)CC [Peptide 14, 1-Oct-Leu-Aib-Lys-Ile-NH2] (Octanoyl-L[Aib]KI-NH2)		> 128	> 128	> 128	> 128	> 128	> 128	> 128	> 128	
CCCCCCCC(=O)NC(C)(C)C(=O)NCC(=O)N[C@@H](CC(C)C)C(=O)NC(C)(C)C(=O)N[C@@H](CCCCN)C(=O)NC(C)(C)C(=O)N[C@@H](CC(C)C)C(=O)NC(C)(C)C(=O)NCC(=O)N[C@H](C(=O)N[C@@H](CC(C)C)C(N)=O)[C@@H](C)CC [Peptide 6b, 1-Oct-Aib-Gly-Leu-Aib-Lys-Aib-Leu-Aib-Gly-Ile-Leu-NH2] (Octanoyl-[Aib]GL[Aib]K[Aib]L[Aib]GIL-NH2)		128 (≈ 109 µM)	> 128	128 (≈ 109 µM)	> 128	> 128	> 128	128 (≈ 109 µM)	8 (≈ 6.79 µM)	MBC Bsu [1, 9]: 128 µg/mL (≈ 109 µM); MBC Sau [3, 9]: 128 µg/mL (≈ 109 µM); MBC Efa [6, 9]: 128 µg/mL (≈ 109 µM); MBC Spy [7, 9]: 32 µg/mL (≈ 27.2 µM); Hemolysis (class) [8]: -
Triton X-100 [reference compound]										Hemolysis (d, diameter of hemolysis zone) ([8]; 50 μg spotted on blood agar, average of triplicate): 13 mm
CCCCCCCC(=O)N[C@@H](CC(C)C)C(=O)N[C@@H](CCCCN)C(=O)NC(C)(C)C(=O)N[C@@H](CC(C)C)C(N)=O [Peptide 18, 1-Oct-Leu-Lys-Aib-Leu-NH2] (Octanoyl-LK[Aib]L-NH2)	> 128	128 (≈ 220 µM)	> 128	> 128	> 128	> 128	> 128	> 128	128 (≈ 220 µM)	
CCCCCCCC(=O)NC(C)(C)C(=O)NCC(=O)N[C@@H](CC(C)C)C(=O)N[C@@H](CC(C)C)C(=O)NCC(=O)NCC(=O)N[C@@H](CC(C)C)C(=O)NC(C)(C)C(=O)NCC(=O)N[C@H](C(=O)N[C@@H](CC(C)C)C(N)=O)[C@@H](C)CC [Peptide 3, 1-Oct-Aib-Gly-Leu-Leu-Gly-Gly-Leu-Aib-Gly-Ile-Leu-NH2] (Octanoyl-[Aib]GLLGGL[Aib]GIL-NH2)		> 128	> 128	> 128	> 128	> 128	> 128	> 128	> 128	Hemolysis (class) [8]: -; Hemolytic activity (in words) ([8]; 50 μg spotted on blood agar): no hemolysis detected
CCCCCCCC(=O)N[C@@H](CC(C)C)C(=O)NC(C)(C)C(=O)N[C@@H](CCCCN)C(=O)N[C@@H](CC(C)C)C(N)=O [Peptide 16, 1-Oct-Leu-Aib-Lys-Leu-NH2] (Octanoyl-L[Aib]KL-NH2)		> 128	> 128	> 128	> 128	> 128	> 128	> 128	> 128	
CCCCCCCC(=O)N[C@@H](CCCCN)C(=O)N[C@@H](CC(C)C)C(=O)NC(C)(C)C(=O)N[C@@H](CC(C)C)C(N)=O [Peptide 17, 1-Oct-Lys-Leu-Aib-Leu-NH2] (Octanoyl-KL[Aib]L-NH2)		> 128	> 128	> 128	> 128	> 128	> 128	> 128	> 128	
CCCCCCCC(=O)NC(C)(C)C(=O)N[C@@H](CCCCN)C(=O)N[C@@H](CCCCN)C(=O)N[C@@H](CC(C)C)C(=O)N[C@@H](CC(C)C)C(N)=O [Peptide 13, 1-Oct-Aib-Lys-Lys-Leu-Leu-NH2] (Octanoyl-[Aib]KKLL-NH2)	64 (≈ 90 µM)	32 (≈ 45 µM)	> 128	> 128	> 128	> 128	> 128	> 128	> 128	
